Where no end group is shown, it is not given here.
Test system: human red blood cells
Type: cell-based
Settings: red cells of human, 24 h
Description: Tissue expression of devil cathelicidin prepropeptides was determined by real-time PCR on a range of secretory, immune, reproductive, gastrointestinal and respiratory tissues, as well as BLAST searches of the milk transcriptome. Opportunistic tissue samples for real-time PCR were collected from Taronga Zoo (Sydney) from devils which were subject to euthanasia due to old age and advanced disease. […] Ltd. and their antimicrobial activity against bacterial and fungal pathogens determined by broth microdilution susceptibility assay according to clinical laboratory standards institute guidelines. Antimicrobial activity was expressed as minimum inhibitory concentration (MIC). Cytotoxicity was assessed in the human cell line A549 and haemolytic activity determined against human blood. Statistical significance of peptide effect on cell survival in comparison to the untreated control was calculated using a one sample t-test. Pouch microbiome analysis was performed on swabs from the pouch of lactating and non-lactating devils to detect changes in microbe populations. Pouch swab collection was carried out in accordance with the Save the Tasmanian Devil Program and was approved by the Animal Ethics Committee of the University of Sydney (permit number 681). page 3: […] Two antibiotics, ampicillin and tetracycline, were included as a positive control for bacteria, and the […] A well containing cells and media only was used as a “no drug” control to ensure that cultures grew normally. Bacteria were subcultured on Mueller Hinton agar (MHA) or Sheep blood agar (BA) for 24 hours at 35 °C for Staphylococcus spp., Pseudomonas spp., Enterococcus spp. and E.coli, with 5% CO2 for Streptococcus spp., K.pneumoniae, P.multocida, […] Similarly, fungi were subcultured on Sabouraud agar (SAB) at 35 °C for 24 hours prior to the test. Colonies were resuspended in saline and the OD530 measured with a McFarland reader. If necessary the suspension was diluted to 0.45-0.55 McFarland units with saline. […] Assays Antimicrobial activity was expressed as minimum inhibitory concentration (MIC), which was defined as the lowest concentration of cathelicidin preventing visible growth, relative to the negative control. Colonies which grew on agar plates were also counted. Cytotoxicity Cytotoxicity was assessed in the human A549 cell line maintained in Dulbecco’s Modification of Eagle’s Medium (DMEM) supplemented with 10% foetal bovine serum (FBS), 2mM L -glutamine, 50units/mL penicillin and 50μg/mL streptomycin. […] Following incubation for a further 24 hours, cell viability was determined using alamar blue (Invitrogen) which was added to each well. […]

“KRMGIFHLFWAGLRKLGNLIKNKIQQGIENFLG [Saha-CATH3]” was tested, and the “haemolysis compared with the positive control” value was “below 7%”.

Source: article PMC5057115, “Cathelicidins in the Tasmanian devil (Sarcophilus harrisii)” (Scientific Reports, 2016)
